Data taken from patent US11680073B2, “Anticancer indenes, indanes, azaindenes, azaindanes, pharmaceutical compositions and uses” (ADT PHARMACEUTICALS, LLC, priority 2018, dated 2023).
pIC50: −log10 of the molar value.

Legend:
[1] = test system: HT-29, a non-Ras-driven line expressing wild-type, non-mutated Ras; assay: Tumor cell growth inhibition, CellTiter-Glo ATP luminescence assay, HT-29; format: cell-based; conditions: HT-29, 72 h, human colon tumor cells, 3-day treatment, ten-fold serial dilutions, read-out: micromolar IC50 for HT-29
Method: (§1) Human cancer cell lines are obtained from the American Type Culture Collection (ATCC). Cells are cultured using standard methods in RPMI-1640 growth medium supplemented with 5% fetal bovine serum (FBS). CellTiter-Glo ATP cell growth assay reagents are obtained from Promega and used according to the manufacturer's protocol. Cells are plated at a density of 5,000 cells per well in 96-well microplates or 1,250 cells per well in 384-well plates, then allowed to attach for at least 4 h. Test compounds are dissolved in dimethyl sulfoxide (DMSO), and this working stock is further diluted in growth medium for addition to cell cultures. Serial dilutions of the test compound are prepared in growth medium containing an equal amount of DMSO not exceeding 0.2% final concentration. Each compound concentration is tested in at least 3 separate samples per cell line. At the end of a 3-day treatment period, growth inhibition is analyzed using a bioluminescent assay of ATP concentration (Promega CellTiter-Glo) according to the manufacturer's protocol. Resulting luminescence is measured using the luminescence cartridge of the Molecular Devices Spectramax Paradigm microplate reader. Relative growth inhibition for each sample is determined by comparison with the values obtained for vehicle treated control samples. Growth inhibition values are plotted with the GraphPad Prism5 software using the 4-parameter logistic fit to obtain IC50 values, which corresponds to the growth inhibitory potency of the compound.
(§2) This selected example illustrates the use of well-established human colon tumor cell lines with widely divergent Ras activation status to determine tumor cell growth inhibitory activity (IC50 values) and Ras selectivity values for some selected exemplary compounds of the present invention. Cell lines thus employed in this example are HCT-116, a highly Ras-driven line expressing mutant Ras, and HT-29, a non-Ras-driven line expressing wild-type, non-mutated Ras. Cells are plated at 5000 cells/well in 96-well plates, ten-fold serial dilutions of compounds are tested, each tested concentration in at least 3 separate samples per cell line, and viable cell numbers are measured using the Cell Titer Glo ATP luminescence assay (Promega). […] FIGS. 5-7 provide examples of full data sets from which numerical values, including Ras selectivity indices, can be calculated; data sets are shown for selected exemplary compounds 2090, 2096 and 2183. […]

[2] = test system: HCT-116, a highly Ras-driven line expressing mutant Ras; assay: Tumor cell growth inhibition, CellTiter-Glo ATP luminescence assay, HCT-116; format: cell-based, human; conditions: for pIC50: HCT-116, 72 h, human colon tumor cells, mutant Ras, 3-day treatment, ten-fold serial dilutions, read-out: micromolar IC50 for HCT-116; for HT-29/HCT-116 Ras Inhibitory Selectivity Index: ratio IC50 HT-29 / IC50 HCT-116, numbers greater than one indicate Ras selectivity
Method: as §1, §2

[3] = test system: cells expressing mutant Ras; conditions: cited from earlier work

| SMILES | pIC50 [1] | pIC50 [2] | HT-29/HCT-116 Ras Inhibitory Selectivity Index [2] | pIC50 ([3]; cells expressing mutant Ras, read-out: IC50, growth inhibition of cells expressing mutant Ras) | selectivity versus cells lacking oncogenic Ras ([3]; versus cells lacking oncogenic Ras) [fold] |
| --- | --- | --- | --- | --- | --- |
| COc1cc(/C=C2/C(C)=C(CC(=O)NCc3cccnc3)c3cc(F)ccc32)cc(OC)c1B1OC(C)(C)C(C)(C)O1 [compound 2200, (Z)-2-(1-(3,5-dimethoxy-4-(4,4,5,5-tetramethyl-1,3,2-dioxaborolan-2-yl)benzylidene)-5-fluoro-2-methyl-1H-inden-3-yl)-N-(pyridin-3-ylmethyl)acetamide] | 5.18 | 5.21 | 1.08 | – | – |
| Cc1onc(C(=O)N2CCN(C(c3ccc(Cl)cc3)c3ccc(Cl)cc3)CC2)c1[N+](=O)[O-] [ML210] | – | – | – | 7.15 | 4 |
| COc1cc(/C=C2/C(C)=C(CNC(=O)c3cn[nH]c3)c3cc(F)ccc32)cc(OC)c1O [compound 2183, (Z)—N-((5-fluoro-1-(4-hydroxy-3,5-dimethoxybenzylidene)-2-methyl-1H-inden-3-yl)methyl)-1H-pyrazole-4-carboxamide] | 5.03 | 6.38 | 22 | – | – |
| COc1cc(/C=C2/C(C)=C(CC(=O)NCc3cccnc3)c3cc(F)ccc32)cc(OC)c1B(O)O [compound 1736, (Z)-(4-((5-fluoro-2-methyl-3-(2-oxo-2-((pyridin-3-ylmethyl)amino)ethyl)-1H-inden-1-ylidene)methyl)-2,6-dimethoxyphenyl)boronic acid] | 5.25 | 5.30 | 1.11 | – | – |
| COc1cc(CC2c3ccc(F)cc3C(CC(=O)NCc3ccccc3)C2C)cc(OC)c1O (centres unmarked) [compound 1796, N-benzyl-2-(6-fluoro-3-(4-hydroxy-3,5-dimethoxybenzyl)-2-methyl-2,3-dihydro-1H-inden-1-yl)acetamide] | 5.10 | 6.67 | 38 | – | – |
| COc1cc(/C=C2/C(C)=C(CNC(=O)c3ccco3)c3cc(F)ccc32)cc(OC)c1O [compound 2090, (Z)—N-((5-fluoro-1-(4-hydroxy-3,5-dimethoxybenzylidene)-2-methyl-1H-inden-3-yl)methyl)furan-2-carboxamide] | 4.89 | 6.52 | 43 | – | – |
| COc1cc(/C=C2/C(C)=C(CNC(=O)Cc3cccnc3)c3cc(F)ccc32)cc(OC)c1O [compound 2096, (Z)—N-((5-fluoro-1-(4-hydroxy-3,5-dimethoxybenzylidene)-2-methyl-1H-inden-3-yl)methyl)-2-(pyridin-3-yl)acetamide] | 5.05 | 7.48 | 273 | – | – |
